Common to all, as to assay: relative viability (nuclei count vs DMSO), 5 days (fraction); higher = more cells survive
Compound in assay [1]: O=C(Nc1cc(C(F)(F)F)cc(C(F)(F)F)c1)c1cc(Cl)ccc1O [IMD-0354] + COc1cc2c(Oc3ccc(NC(=O)C4(C(=O)Nc5ccc(F)cc5)CC4)cc3F)ccnc2cc1OCCCN1CCOCC1 [Foretinib] (partner 0.25 µM)
A digest of the protocol:
(§1)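 For relative viability, nuclei counts in treated wells were divided by those in vehicle wells. Lung cancer cell lines had been pin-tool dosed in 1536-well plates the day after seeding and cultured for 5 days, then fixed and stained in one step (final 0.05% Triton X-100, 1% formaldehyde, 1 ug/ml Hoechst) and imaged at 4×. Doses were one drug alone or a fixed anchor-drug dose plus five library-drug doses (not always all listed) in √10 steps, and values are duplicate-plate medians.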

Compound in assay [2]: O=C(Nc1cc(C(F)(F)F)cc(C(F)(F)F)c1)c1cc(Cl)ccc1O [IMD-0354] + C[C@]1(O)C[C@@H](c2nc(-c3ccc4ccc(-c5ccccc5)nc4c3)c3c(N)nccn32)C1 [Linsitinib] (partner 1 µM)
A digest of the protocol:
as §1

Compound in assay [3]: Cc1cnc(CNC(=O)c2c(=O)c3ccc(N4CCCN(C)CC4)nc3n3c2sc2ccccc23)cn1 [CX-5461] + Cc1cc(Nc2cc(N3CCN(C)CC3)nc(Sc3ccc(NC(=O)C4CC4)cc3)n2)n[nH]1 [Tozasertib] (partner 0.1 µM)
In short, it runs like this: as §1

Compound in assay [4]: O=C(Nc1cc(C(F)(F)F)cc(C(F)(F)F)c1)c1cc(Cl)ccc1O [IMD-0354] + CC(C)C[C@H](NC(=O)[C@H](Cc1ccccc1)NC(=O)c1cnccn1)B(O)O [Bortezomib] (partner 0.002 µM)
In short, it runs like this:
as §1

As for NCI-H2085, the relative viability was found to be 0.97 in assay [1] (first compound 0.04 µM); 0.922 in assay [1] (first compound 0.1265 µM); 0.791 in assay [1] (first compound 0.4 µM); 0.538 in assay [1] (first compound 1.265 µM); 0.225 in assay [1] (first compound 4 µM); 0.786 in assay [2] (first compound 0.04 µM). In addition, the relative viability in assay [2] (first compound 0.1265 µM) was 0.976; in assay [2] (first compound 0.4 µM) it was 0.687; in assay [2] (first compound 1.265 µM), 0.497; in assay [2] (first compound 4 µM) it was 0.278; in assay [3] (first compound 0.01 µM), 0.734; in assay [3] (first compound 0.03162 µM), 0.849. The relative viability in assay [3] (first compound 0.1 µM) turned out to be 0.785; in assay [3] (first compound 0.3162 µM), 0.752; in assay [3] (first compound 1 µM) it was 0.798; in assay [4] (first compound 0.04 µM) it was 1.03; in assay [4] (first compound 0.1265 µM), 1.09; in assay [4] (first compound 0.4 µM), 0.757. Moreover, the values for the relative viability in assay [4] (first compound 1.265 µM) and in assay [4] (first compound 4 µM) were 0.491 and 0.386, respectively.

As to NCI-H2087, the relative viability in assay [1] (first compound 0.04 µM) came to 1.08; in assay [1] (first compound 0.1265 µM) it was 1.04; in assay [1] (first compound 0.4 µM), 0.382; in assay [1] (first compound 1.265 µM) it was 0.257; in assay [1] (first compound 4 µM) it was 0.189; in assay [2] (first compound 0.04 µM), 0.887. The relative viability is 0.659 in assay [2] (first compound 0.1265 µM); 0.308 in assay [2] (first compound 0.4 µM); 0.127 in assay [2] (first compound 1.265 µM); 0.203 in assay [2] (first compound 4 µM); 0.208 in assay [3] (first compound 0.01 µM); 0.276 in assay [3] (first compound 0.03162 µM). The relative viability in assay [3] (first compound 0.1 µM) amounted to 0.243; in assay [3] (first compound 0.3162 µM), 0.265; in assay [3] (first compound 1 µM), 0.159; in assay [4] (first compound 0.04 µM), 1.06; in assay [4] (first compound 0.1265 µM) it was 1; in assay [4] (first compound 0.4 µM) it was 0.272. Further, the relative viability in assay [4] (first compound 1.265 µM) was determined as 0.145; in assay [4] (first compound 4 µM) it was 0.151.

NCI-H2126: the relative viability came out at 0.935 in assay [1] (first compound 0.04 µM); 1.23 in assay [1] (first compound 0.1265 µM); 0.813 in assay [1] (first compound 0.4 µM); 0.875 in assay [1] (first compound 1.265 µM); 0.494 in assay [1] (first compound 4 µM); 0.644 in assay [2] (first compound 0.04 µM). In addition, the relative viability in assay [2] (first compound 0.1265 µM) amounted to 0.685; in assay [2] (first compound 0.4 µM) it was 0.715; in assay [2] (first compound 1.265 µM), 0.577; in assay [2] (first compound 4 µM), 0.316; in assay [3] (first compound 0.01 µM), 0.842; in assay [3] (first compound 0.03162 µM) it was 0.842. Moreover, the relative viability turned out to be 0.758 in assay [3] (first compound 0.1 µM); 0.765 in assay [3] (first compound 0.3162 µM); 0.668 in assay [3] (first compound 1 µM); 1.17 in assay [4] (first compound 0.04 µM); 1.12 in assay [4] (first compound 0.1265 µM); 0.89 in assay [4] (first compound 0.4 µM). For the same cell line, the relative viability in assay [4] (first compound 1.265 µM) is 0.744; in assay [4] (first compound 4 µM), 0.425.

NCI-H2228: the relative viability in assay [1] (first compound 0.04 µM) came to 1.05; in assay [1] (first compound 0.1265 µM), 0.921; in assay [1] (first compound 0.4 µM) it was 0.416; in assay [1] (first compound 1.265 µM), 0.515; in assay [1] (first compound 4 µM), 0.17; in assay [2] (first compound 0.04 µM) it was 0.563. In addition, the relative viability in assay [2] (first compound 0.1265 µM) was 0.795; in assay [2] (first compound 0.4 µM) it was 0.544; in assay [2] (first compound 1.265 µM), 0.167; in assay [2] (first compound 4 µM) it was 0.409; in assay [3] (first compound 0.01 µM) it was 0.245; in assay [3] (first compound 0.03162 µM) it was 0.213. Also, the relative viability in assay [3] (first compound 0.1 µM) was determined as 0.224; in assay [3] (first compound 0.3162 µM), 0.261; in assay [3] (first compound 1 µM), 0.0867; in assay [4] (first compound 0.04 µM), 0.946; in assay [4] (first compound 0.1265 µM) it was 0.848; in assay [4] (first compound 0.4 µM), 0.653. Besides, the relative viability in assay [4] (first compound 1.265 µM) came out at 0.362; in assay [4] (first compound 4 µM), 0.258.

NCI-H2347: the relative viability was determined as 1.11 in assay [1] (first compound 0.04 µM); 0.842 in assay [1] (first compound 0.1265 µM); 0.523 in assay [1] (first compound 0.4 µM); 0.599 in assay [1] (first compound 1.265 µM); 0.513 in assay [1] (first compound 4 µM); 1.04 in assay [2] (first compound 0.04 µM). In addition, the relative viability worked out at 1.08 in assay [2] (first compound 0.1265 µM); 0.824 in assay [2] (first compound 0.4 µM); 0.511 in assay [2] (first compound 1.265 µM); 0.447 in assay [2] (first compound 4 µM); 0.544 in assay [3] (first compound 0.01 µM); 0.563 in assay [3] (first compound 0.03162 µM). The relative viability in assay [3] (first compound 0.1 µM) was 0.474; in assay [3] (first compound 0.3162 µM), 0.536; in assay [3] (first compound 1 µM), 0.454; in assay [4] (first compound 0.04 µM) it was 0.741; in assay [4] (first compound 0.1265 µM), 1.02; in assay [4] (first compound 0.4 µM), 0.748. In addition, the relative viability in assay [4] (first compound 1.265 µM) is 0.606; in assay [4] (first compound 4 µM), 0.533.

For the cell line NCI-H2405, the relative viability in assay [1] (first compound 0.04 µM) was found to be 1.1; in assay [1] (first compound 0.1265 µM) it was 1.02; in assay [1] (first compound 0.4 µM), 0.926; in assay [1] (first compound 1.265 µM), 0.365; in assay [1] (first compound 4 µM) it was 0.303; in assay [2] (first compound 0.04 µM), 1.18. The relative viability in assay [2] (first compound 0.1265 µM) stood at 1.06; in assay [2] (first compound 0.4 µM), 0.695; in assay [2] (first compound 1.265 µM) it was 0.335; in assay [2] (first compound 4 µM) it was 0.185; in assay [3] (first compound 0.01 µM), 0.746; in assay [3] (first compound 0.03162 µM) it was 0.882. Moreover, the relative viability in assay [3] (first compound 0.1 µM) was determined as 0.702; in assay [3] (first compound 0.3162 µM) it was 0.549; in assay [3] (first compound 1 µM), 0.544; in assay [4] (first compound 0.04 µM), 1.04; in assay [4] (first compound 0.1265 µM) it was 1.04; in assay [4] (first compound 0.4 µM), 0.732. For the same cell line, the relative viability amounted to 0.498 in assay [4] (first compound 1.265 µM) and 0.302 in assay [4] (first compound 4 µM).

These data come from the supplement of paper PMC10307832.
